# From patent US9499711B2, “Treatment liquid and recording method” (Seiko Epson Corporation, priority 2014, dated 2016)
# Assay: physchem
# Details: not given
row,Structure (SMILES),logP
1,CCCCCO [1-pentanol],1.4

# Same assay, conditions: log P value
row,logP,Structure (SMILES)
1,0.16,"CC(C)(O)CCO [3-methyl-1,3-butanediol]"
2,0.87,CCCOC(C)COC(C)CO (centres unmarked) [Dipropylene glycol monopropyl ether]
3,0.39,CCOCCOCCOCC [diethylene glycol diethyl ether]
4,0.56,CCCCOCCOCCO [diethylene glycol monobutyl ether]
5,1.7,CCCCCCOCCOCCO [diethylene glycol monohexyl ether]
6,1.7,CCCCCCOCCO [ethylene glycol monohexyl ether]
7,1.15,CCCCOCC(C)O (centres unmarked) [propylene glycol monobutyl ether]
8,0.3,CCOCC(C)O (centres unmarked) [propylene glycol monoethyl ether]
9,0.62,CCCOCC(C)O (centres unmarked) [propylene glycol monopropyl ether]
10,1.34,CCCCOC(C)COC(C)COC(C)CO (centres unmarked) [tripropylene glycol monobutyl ether]

# Same assay, conditions: logP value of organic compound
row,logP,Structure (SMILES)
1,1.6,"CCCC(O)C(CC)CO (centres unmarked) [2-Ethyl-1,3-hexane diol]"
2,0.6,CCCOC(C)COC(C)CO (centres unmarked) [Dipropylene glycol monopropyl ether]
3,-2.75,CCOCCOCCOCCO [Triethylene glycol monoethyl ether]
